This passage reports IC50 results from US8450317B2, “CXCR3 receptor antagonists” (Boehringer Ingelheim International GmbH, priority 2009, dated 2013).

The IC50 is the concentration that gives 50% inhibition.

This assay concerns the target CXCR3 (Macaca fascicularis, UniProt A0A2K5UV19). Nature of the assay: functional cellular assay measuring calcium flux in CXCR3 transfected cells (block of CXCR3/IP-10 interaction). The format is cell-based, Cyno. Conditions: IP-10 induced intracellular calcium flux; Cyno-CHO cells stably expressing recombinant CXCR3 and G-alpha-16; IP-10 at EC80; read-out: IC50. Summed up:
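Cyno-CHO cells stably expressing CXCR3 and G-alpha-16, loaded with Ca-4 dye in HBSS/10 mM HEPES pH 7.4 with 2 mM probenecid for 1 h at 37° C. Compound (final 10 microM) preincubated 15 min at room temperature, then IP-10 at EC80 added; calcium flux read at 480/540 nm.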
For orientation: Calcium flux is commonly read through the fluorescence of an indicator in the cells.

CXCR3, sequence (A0A2K5UV19 entry or part of it): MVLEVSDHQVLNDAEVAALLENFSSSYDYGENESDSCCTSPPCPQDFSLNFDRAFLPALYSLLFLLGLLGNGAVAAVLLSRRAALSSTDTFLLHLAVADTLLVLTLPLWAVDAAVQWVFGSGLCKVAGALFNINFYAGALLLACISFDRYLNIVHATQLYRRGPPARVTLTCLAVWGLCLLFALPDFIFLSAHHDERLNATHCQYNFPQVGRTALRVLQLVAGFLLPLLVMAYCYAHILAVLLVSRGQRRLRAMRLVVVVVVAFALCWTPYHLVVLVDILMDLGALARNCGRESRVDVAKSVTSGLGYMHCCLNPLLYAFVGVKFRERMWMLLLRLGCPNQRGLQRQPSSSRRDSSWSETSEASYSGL

Turning to `Cc1cc(C)n(CC(=O)N2CCN(c3ccc(Cl)cc3-c3cnc(N4CCOCC4)nc3)CC2)n1` [1-{4-[4-Chloro-2-(2-morpholin-4-yl-pyrimidin-5-yl)-phenyl]-piperazin-1-yl}-2-(3,5-dimethyl-pyrazol-1-yl)-ethanone], the IC50 came out at 0.011 µM.
Turning to `COc1ncc(-c2cc(F)ccc2N2CCN(C(=O)Cn3ccc4cccnc43)CC2)cn1` [1-{4-[4-fluoro-2-(2-methoxypyrimidin-5-yl)phenyl]piperazin-1-yl}-2-(1H-pyrrolo[2,3-b]pyridin-1-yl)ethanone], the IC50 amounted to 0.011 µM.
For `Cc1cc(C)n(CC(=O)N2CCN(c3ccc(F)cc3-c3cnc(S(C)(=O)=O)nc3)CC2C)n1` (stereo not shown) [2-(3,5-dimethyl-1H-pyrazol-1-yl)-1-(4-{4-fluoro-2-[2-(methylsulfonyl)pyrimidin-5-yl]phenyl}-2-methylpiperazin-1-yl)ethanone] the value was 0.157 µM; for `Cc1cc(C)n(CC(=O)N2CCN(c3ccc(F)cc3-c3cnc(N4CCC(S(C)(=O)=O)CC4)nc3)CC2)n1` [2-(3,5-dimethyl-1H-pyrazol-1-yl)-1-[4-(4-fluoro-2-{2-[4-(methylsulfonyl)piperidin-1-yl]pyrimidin-5-yl}phenyl)piperazin-1-yl]ethanone], 0.011 µM; for `Cc1cc(C)n(CC(=O)N2CCN(c3ccc(C(F)(F)F)cc3-c3cnc(S(C)(=O)=O)nc3)CC2C)n1` (stereo not shown) [2-(3,5-dimethyl-1H-pyrazol-1-yl)-1-(2-methyl-4-{2-[2-(methylsulfonyl)pyrimidin-5-yl]-4-(trifluoromethyl)phenyl}piperazin-1-yl)ethanone], 0.056 µM.
In the case of `CC1CN(c2ccc(C(F)(F)F)cc2-c2cnc(N3CCC(S(C)(=O)=O)CC3)nc2)CCN1C(=O)Cn1cnc2cccnc21` (stereo not shown) [2-(3H-imidazo[4,5-b]pyridin-3-yl)-1-{2-methyl-4-[2-{2-[4-(methylsulfonyl)piperidin-1-yl]pyrimidin-5-yl}-4-(trifluoromethyl)phenyl]piperazin-1-yl}ethanone] it was 0.007 µM.
With `COc1ncc(-c2cc(F)ccc2N2CCN(C(=O)Cn3nc(C)cc3C)CC2)cn1` [2-(3,5-Dimethyl-pyrazol-1-yl)-1-{4-[4-fluoro-2-(2-methoxy-pyrimidin-5-yl)-phenyl]-piperazin-1-yl}-ethanone], the half-inhibitory concentration (IC50) amounted to 0.014 µM.
For `COc1ncc(-c2ccccc2N2CCN(C(=O)Cn3ncc4ccccc43)CC2)cn1` [2-Indazol-1-yl-1-{4-[2-(2-methoxy-pyrimidin-5-yl)-phenyl]-piperazin-1-yl}-ethanone] the value was 0.035 µM; for `C[C@H]1CN(c2ccc(F)cc2C(=O)Nc2nc3c(s2)CN(C)CC3)CCN1C(=O)Cn1cnc2cccnc21` [5-fluoro-2-[(3S)-4-(3H-imidazo[4,5-b]pyridin-3-ylacetyl)-3-methylpiperazin-1-yl]-N-(5-methyl-4,5,6,7-tetrahydro[1,3]thiazolo[5,4-c]pyridin-2-yl)benzamide], 0.015 µM.
Regarding `C[C@@H]1CN(c2ccc(F)cc2C(=O)Nc2nc3c(s2)CN(C)CC3)CCN1C(=O)CN1CCCCC1=O` [5-fluoro-2-{(3R)-3-methyl-4-[(2-oxopiperidin-1-yl)acetyl]piperazin-1-yl}-N-(5-methyl-4,5,6,7-tetrahydro[1,3]thiazolo[5,4-c]pyridin-2-yl)benzamide], the IC50 came out at 0.02 µM.
For `CNC(=O)C1CCN(c2ncc(-c3ccccc3N3CCN(C(=O)Cn4nc(C)cc4C)CC3)cn2)CC1` [1-[5-(2-{4-[2-(3,5-Dimethyl-pyrazol-1-yl)-acetyl]-piperazin-1-yl}-phenyl)-pyrimidin-2-yl]-piperidine-4-carboxylic acid methylamide] the value was 0.009 µM.
For `CC1CN(c2ccccc2-c2cnc(N3CCC(O)CC3)nc2)CCN1C(=O)CN1CCCCC1=O` (stereo not shown) [1-[2-(4-{2-[2-(4-hydroxypiperidin-1-yl)pyrimidin-5-yl]phenyl}-2-methylpiperazin-1-yl)-2-oxoethyl]piperidin-2-one], the IC50 is 0.019 µM.
In the case of `Cc1cc(C)n(CC(=O)N2CCN(c3ccccc3-c3cnc(N4CCCC(C(N)=O)C4)nc3)CC2)n1` (stereo not shown) [1-[5-(2-{4-[2-(3,5-Dimethyl-pyrazol-1-yl)-acetyl]-piperazin-1-yl}-phenyl)-pyrimidin-2-yl]-piperidine-3-carboxylic acid amide] it was 0.009 µM.
In the case of `CS(=O)(=O)c1ncc(-c2cc(C(F)(F)F)ccc2N2CCN(C(=O)Cn3ccc4cccnc43)CC2)cn1` [1-{4-[2-(2-Methanesulfonyl-pyrimidin-5-yl)-4-trifluoromethyl-phenyl]-piperazin-1-yl}-2-pyrrolo[2,3-b]pyridin-1-yl-ethanone] it was 0.013 µM; in that of `O=C(CN1CCCCC1=O)N1CCN(c2ccc(F)cc2-c2cnc(N3CCC(O)CC3)nc2)CC1` [1-[2-(4-{4-fluoro-2-[2-(4-hydroxypiperidin-1-yl)pyrimidin-5-yl]phenyl}piperazin-1-yl)-2-oxoethyl]piperidin-2-one], 0.016 µM.
For `COc1cc(NC(=O)c2cc(F)ccc2N2CCN(C(=O)CN3CCCCC3=O)[C@@H](C)C2)ccn1` [5-fluoro-N-(2-methoxypyridin-4-yl)-2-{(3S)-3-methyl-4-[(2-oxopiperidin-1-yl)acetyl]piperazin-1-yl}benzamide] the value was 0.008 µM.
`CC1CN(c2ccc(F)cc2-c2cnc(N3CCC(S(C)(=O)=O)CC3)nc2)CCN1C(=O)Cn1ccc2cccnc21` (stereo not shown) [1-[4-(4-fluoro-2-{2-[4-(methylsulfonyl)piperidin-1-yl]pyrimidin-5-yl}phenyl)-2-methylpiperazin-1-yl]-2-(1H-pyrrolo[2,3-b]pyridin-1-yl)ethanone]: the IC50 came to 0.008 µM.
For `CC1CN(c2ccc(C(F)(F)F)cc2-c2cnc(N3CCC(S(C)(=O)=O)CC3)nc2)CCN1C(=O)CN1Cc2ccccc2C1=O` (stereo not shown) [2-(2-{2-methyl-4-[2-{2-[4-(methylsulfonyl)piperidin-1-yl]pyrimidin-5-yl}-4-(trifluoromethyl)phenyl]piperazin-1-yl}-2-oxoethyl)-2,3-dihydro-1H-isoindol-1-one] the value was 0.007 µM; for `Cc1cc(C)n(CC(=O)N2CCN(c3ccc(C#N)cc3-c3cnc(N4CCOCC4)nc3)CC2)n1` [4-{4-[2-(3,5-Dimethyl-pyrazol-1-yl)-acetyl]-piperazin-1-yl}-3-(2-morpholin-4-yl-pyrimidin-5-yl)-benzonitrile], 0.018 µM; for `Cc1cc(C)n(CC(=O)N2CCN(c3ccccc3-c3ccc(C#N)nc3)CC2)n1` [5-(2-{4-[2-(3,5-Dimethyl-pyrazol-1-yl)-acetyl]-piperazin-1-yl}-phenyl)-pyridine-2-carbonitrile], 0.018 µM.
With `C[C@@H]1CN(c2ccc(F)cc2C(=O)Nc2nc3c(s2)CN(C)CC3)CCN1C(=O)Cn1ccc2cccnc21` [5-fluoro-2-[(3R)-3-methyl-4-(1H-pyrrolo[2,3-b]pyridin-1-ylacetyl)piperazin-1-yl]-N-(5-methyl-4,5,6,7-tetrahydro[1,3]thiazolo[5,4-c]pyridin-2-yl)benzamide], the IC50 turned out to be 0.02 µM.
In the case of `COc1cc(NC(=O)c2cc(F)ccc2N2CCN(C(=O)Cn3nc(C)cc3C)[C@@H](C)C2)ccn1` [2-{(3S)-4-[(3,5-dimethyl-1H-pyrazol-1-yl)acetyl]-3-methylpiperazin-1-yl}-5-fluoro-N-(2-methoxypyridin-4-yl)benzamide] it was 0.012 µM.
`COc1ncc(-c2ccccc2N2CCN(C(=O)Cn3ccc4cccnc43)CC2)cn1` [1-{4-[2-(2-Methoxy-pyrimidin-5-yl)-phenyl]-piperazin-1-yl}-2-pyrrolo[2,3-b]pyridin-1-yl-ethanone]: the IC50 was 0.006 µM.
For `Cc1cc(C(F)(F)F)nn1CC(=O)N1CCN(c2ccccc2-c2ccc(C#N)nc2)CC1` [5-(2-{4-[2-(5-Methyl-3-trifluoromethyl-pyrazol-1-yl)-acetyl]-piperazin-1-yl}-phenyl)-pyridine-2-carbonitrile] the value was 0.071 µM.
In the case of `COC1(C)CCN(c2ncc(-c3ccccc3N3CCN(C(=O)Cn4nc(C)cc4C)CC3)cn2)CC1` [2-(3,5-Dimethyl-pyrazol-1-yl)-1-(4-{2-[2-(4-methoxy-4-methyl-piperidin-1-yl)-pyrimidin-5-yl]-phenyl}-piperazin-1-yl)-ethanone] it was 0.033 µM; in that of `CN1CCN(c2ncc(-c3cc(F)ccc3N3CCN(C(=O)CN4Cc5ccccc5C4=O)CC3)cn2)CC1` [2-[2-(4-{4-fluoro-2-[2-(4-methylpiperazin-1-yl)pyrimidin-5-yl]phenyl}piperazin-1-yl)-2-oxoethyl]-2,3-dihydro-1H-isoindol-1-one], 0.026 µM; in that of `COc1cc(NC(=O)c2cc(F)ccc2N2CCN(C(=O)Cn3ccc4cccnc43)[C@@H](C)C2)ccn1` [5-fluoro-N-(2-methoxypyridin-4-yl)-2-[(3S)-3-methyl-4-(1H-pyrrolo[2,3-b]pyridin-1-ylacetyl)piperazin-1-yl]benzamide], 0.018 µM.
In the case of `Cc1cc(C)n(CC(=O)N2CCN(c3ccccc3-c3cnc(N4CCCC4)nc3)CC2)n1` [2-(3,5-Dimethyl-pyrazol-1-yl)-1-{4-[2-(2-pyrrolidin-1-yl-pyrimidin-5-yl)-phenyl]-piperazin-1-yl}-ethanone] it was 0.007 µM; in that of `COc1ccc(C(=O)NCC(=O)N2CCN(c3ccccc3-c3cnc(N4CCOCC4)nc3)CC2)cc1OC` [3,4-Dimethoxy-N-(2-{4-[2-(2-morpholin-4-yl-pyrimidin-5-yl)-phenyl]-piperazin-1-yl}-2-oxo-ethyl)-benzamide], 0.068 µM.
With `CS(=O)(=O)c1ncc(-c2ccccc2N2CCN(C(=O)Cn3ccc4cccnc43)CC2)cn1` [1-{4-[2-(2-Methanesulfonyl-pyrimidin-5-yl)-phenyl]-piperazin-1-yl}-2-pyrrolo[2,3-b]pyridin-1-yl-ethanone], the IC50 came out at 0.115 µM.
Consider `Cc1cc(C)n(CC(=O)N2CCN(c3ccccc3-c3cnc(N4CCC(O)CC4)nc3)CC2C)n1` (stereo not shown) [2-(3,5-dimethyl-1H-pyrazol-1-yl)-1-(4-{2-[2-(4-hydroxypiperidin-1-yl)pyrimidin-5-yl]phenyl}-2-methylpiperazin-1-yl)ethanone], for which the IC50 stood at 0.013 µM.
